From patent US8178575B2, “Derivatives of azabicyclo octane, the method of making them and the uses thereof as inhibitors of dipeptidyl peptidase IV” (Shanghai Hengrui Pharmaceutical Co., Ltd., priority 2007, dated 2012)
Structures can show the parent of a compound that is named as a salt.

Experiments:
[1] = test system: type II diabetes KKAy mice; assay: Oral glucose tolerance test in type II diabetes KKAy mice; assay type: in vivo
Protocol: Normal KKAy mice had been fasted for 6 hours, and then were randomly grouped according to weights and fasting blood glucose, 5 mice in each group. The groups included a blank control group as well as different doses of the treatment groups as follows:
30 minutes later, animals were administered 2.5 g/kg (female KKAy mice) or 1.5 g/kg (male KKAy mice) glucose by gavage. After administration of glucose at 30, 60 and 120 minuets, serum glucose levels were determined by Glucometer.
• 3. Mean±SD and Student-t test or Anova were used in data statistical analysis. • 4.

QPP = target: T1, QPP (Homo sapiens, UniProt Q9UHL4); assay: Selective activity determination of DPPIV inhibitors, recombinant enzyme, fluorescence substrate; assay type: biochemical; settings: recombinant protein from insect expression system
T1 construct: made in house; host or cells: insect expression system
Text: (§1) It can cut off the first two amino acids in many of the N-peptide to change or lose its biological activity. Gene knockout animal and human experiments indicate that reducing DPPIV activity effectively and specifically in vivo can improve blood insulin content and lower blood sugar levels, so as to improve the symptoms of diabetes effectively.
(§2) By using the insect expression system, the recombinant proteins of DPPIV, DPP8, DPP9 and QPP had been obtained. The activities of the […] enzymes were detected by fluorescence Substrate. The inhibitory effects of compounds were evaluated by the effects of different compounds on inhibiting enzyme activities. Positive reference compound was LAF237.

DPPIV = target: T2, DPPIV (Homo sapiens, UniProt P27487); assay: as above; assay type: biochemical
T2 construct: made in house; host or cells: insect expression system
T2 sequence (P27487 whole entry): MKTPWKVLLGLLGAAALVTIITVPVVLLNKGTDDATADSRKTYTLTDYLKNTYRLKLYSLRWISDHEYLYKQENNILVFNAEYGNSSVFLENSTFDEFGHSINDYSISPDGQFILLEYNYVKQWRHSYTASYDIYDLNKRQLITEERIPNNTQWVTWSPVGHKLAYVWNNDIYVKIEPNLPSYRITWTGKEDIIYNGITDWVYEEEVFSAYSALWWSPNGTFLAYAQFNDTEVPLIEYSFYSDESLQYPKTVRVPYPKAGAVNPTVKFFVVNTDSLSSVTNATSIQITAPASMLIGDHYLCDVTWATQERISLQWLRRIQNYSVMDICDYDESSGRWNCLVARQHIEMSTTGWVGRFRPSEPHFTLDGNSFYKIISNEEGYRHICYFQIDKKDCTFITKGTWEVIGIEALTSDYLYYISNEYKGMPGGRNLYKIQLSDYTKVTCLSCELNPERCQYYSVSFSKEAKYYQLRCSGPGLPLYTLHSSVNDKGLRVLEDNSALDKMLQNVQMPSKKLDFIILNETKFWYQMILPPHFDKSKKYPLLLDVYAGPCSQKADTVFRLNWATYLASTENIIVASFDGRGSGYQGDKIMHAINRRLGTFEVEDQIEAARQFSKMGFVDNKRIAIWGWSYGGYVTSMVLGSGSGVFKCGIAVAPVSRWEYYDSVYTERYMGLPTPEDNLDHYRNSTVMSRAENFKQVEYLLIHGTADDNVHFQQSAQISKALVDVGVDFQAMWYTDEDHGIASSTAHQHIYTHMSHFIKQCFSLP
Text: as §1, §2

normal ICR mice = assay: Oral glucose tolerance test in normal ICR mice; assay type: in vivo; settings: male ICR mice, 30 minutes after 2.5 g/kg glucose
Protocol: Normal male ICR mice were randomly grouped according to weights, 6 mice in each group. The groups included a blank control group as well as different doses of the treatment groups as follows:
Animals in each group had been fasted for 6 hours, and then pretreated with compounds or double distilled water by gavage respectively in single administration. 30 minutes later, animals were administered 2.5 g/kg glucose by gavage. Before administration and after administration of glucose at 30, 60 and 120 minuets, blood was taken to determine serum glucose levels.
Serum glucose is determined by glucose kit. 250 μl working enzyme solution was taken, and then 5 μl serum was added to the solution. A blank tube (5 μl double distilled water was added) and a standard tube (5 μl glucose standard solution was added) were established simultaneously, shaking respectively, and in 37° C. water bath for 20 minutes. The blank tube was tuned with, and then calorimetric assay was determined at OD505 nm. Serum glucose concentration (BG, mmol/l)=ODsample tube/ODstandard tube×5.55 Data Processing and Statistical Analysis: • 1. Mean±SD and Student-t test were used in data statistical analysis. • 2. The percentage of blood glucose decline in 30 minutes after sugar administration as well as the area under the curve (AUC) was calculated.

FAP = target: T3, FAP (Homo sapiens, UniProt Q12884); assay: Selective activity determination of DPPIV inhibitors, fluorescence substrate; assay type: biochemical
T3 sequence (Q12884 1-760): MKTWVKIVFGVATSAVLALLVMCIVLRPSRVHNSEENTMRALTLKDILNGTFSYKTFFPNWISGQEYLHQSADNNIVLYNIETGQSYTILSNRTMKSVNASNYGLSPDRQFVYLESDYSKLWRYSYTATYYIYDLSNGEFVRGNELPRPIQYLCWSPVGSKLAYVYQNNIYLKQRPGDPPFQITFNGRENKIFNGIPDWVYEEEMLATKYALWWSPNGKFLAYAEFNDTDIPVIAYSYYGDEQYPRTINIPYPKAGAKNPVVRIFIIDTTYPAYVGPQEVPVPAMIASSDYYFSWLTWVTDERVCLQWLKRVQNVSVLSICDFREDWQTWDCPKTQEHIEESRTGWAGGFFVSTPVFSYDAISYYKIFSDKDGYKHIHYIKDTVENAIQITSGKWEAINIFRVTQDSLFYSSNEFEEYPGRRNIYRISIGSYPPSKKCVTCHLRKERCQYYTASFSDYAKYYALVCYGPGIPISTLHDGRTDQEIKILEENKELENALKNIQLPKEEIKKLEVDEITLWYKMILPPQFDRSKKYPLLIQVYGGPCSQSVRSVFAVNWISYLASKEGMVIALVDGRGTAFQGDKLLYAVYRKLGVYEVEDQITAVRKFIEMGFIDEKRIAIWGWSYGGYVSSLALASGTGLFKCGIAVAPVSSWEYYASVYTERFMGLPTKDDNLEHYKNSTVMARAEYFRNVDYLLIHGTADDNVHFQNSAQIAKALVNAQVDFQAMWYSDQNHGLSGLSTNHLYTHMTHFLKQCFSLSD
Text: as §1, §2

[2] = female KKAy mice, 10 mg/kg by gavage, 30 minutes after 2.5 g/kg glucose
[3] = male KKAy mice, 10 mg/kg by gavage, 30 minutes after 1.5 g/kg glucose
[4] = male KKAy mice, 30 mg/kg by gavage, 30 minutes after 1.5 g/kg glucose
[5] = Test 1, high dose (10 mg/kg by gavage)
[6] = Test 1, low dose (1 mg/kg by gavage)
[7] = Test 1, middle dose (3 mg/kg by gavage)
[8] = Test 2, high dose (10 mg/kg by gavage)
[9] = Test 2, low dose (1 mg/kg by gavage)
[10] = Test 2, middle dose (3 mg/kg by gavage)

Compound | percentage of blood glucose decreased vs control group [1, 2] [%] | percentage of blood glucose decreased vs control group [1, 3] [%] | percentage of blood glucose decreased vs control group [1, 4] [%] | IC50 (QPP) [nM] | IC50 (DPPIV) [nM] | percentage of blood glucose decreased vs control group (normal ICR mice; [5]) [%] | percentage of blood glucose decreased vs control group (normal ICR mice; [6]) [%] | percentage of blood glucose decreased vs control group (normal ICR mice; [7]) [%] | percentage of blood glucose decreased vs control group (normal ICR mice; [8]) [%] | percentage of blood glucose decreased vs control group (normal ICR mice; [9]) [%] | percentage of blood glucose decreased vs control group (normal ICR mice; [10]) [%] | IC50 (FAP) [nM] | percentage of blood glucose decreased vs control group ([1]; female KKAy mice, 3 mg/kg by gavage, 30 minutes after 2.5 g/kg glucose) [%]
COC(=O)N1C[C@H]2C[C@@H](NCC(=O)N3CCC[C@H]3C#N)C[C@H]2C1 (relative stereo) [Example 2, cis-5-[2-(2-Cyano-pyrrolidin-1-yl)-2-oxo-ethylamino]-hexahydro-cyclopenta[c]pyrrole-2-carboxylic acid methyl ester hydrochloride] | 21.55 | 13.79 | 12.23 | > 56000 | 98 ± 36.4 | 26.93 | 25.54 | 25.92 | 27.75 | 24.51 | 26.96 | 476 ± 112 | –
CN(C)C(=O)N1C[C@H]2C[C@@H](NCC(=O)N3CCC[C@H]3C#N)C[C@H]2C1 (relative stereo) [Example 1, cis-5-[2-(2-Cyano-pyrrolidin-1-yl)-2-oxo-ethylamino]-hexahydro-cyclopenta[c]pyrrole-2-carboxylic acid dimethylamide hydrochloride] | 24.68 | 16.22 | 17.15 | – | – | 31.85 | 19.16 | 22.85 | 32.05 | 26.10 | 30.24 | – | 40.63
